Earlier results on one substance are cited in patent publication US20050239743A1, “Compositions and methods to inhibit restenosis” (Pro-Pharmaceuticals, Inc., priority 2004, published 2005).

The conditions of the data set: long-term use 10,000 units/day, s.c., following coronary angioplasty.

For the substance heparin, the abnormal hemorrhage supervening is 41%. Further, the “coronary restenosis, share of the cases” value (control restenosis value 33%) is 82%.
